Experimental data: patent publication US20120245201A1, “Isopropylphenidate for Treatment of Attention-Deficit/Hyperactivity Disorder and Fatigue-Related Disorders and Conditions” (priority 2009, published 2012)

What was measured:
hCES1 = molecular target: T1, hCES1 (Homo sapiens, UniProt P23141); experiment: Transesterification potential in the presence of ethanol, s9 fraction of hCES1-transfected cells; conditions: for effect of ethanol on formation of the hydrolytic product RA: hCES1 s9; for EPH formation with ethanol when hCES1 was not present: incubation with ethanol, no hCES1
T1 sequence (P23141 18-567): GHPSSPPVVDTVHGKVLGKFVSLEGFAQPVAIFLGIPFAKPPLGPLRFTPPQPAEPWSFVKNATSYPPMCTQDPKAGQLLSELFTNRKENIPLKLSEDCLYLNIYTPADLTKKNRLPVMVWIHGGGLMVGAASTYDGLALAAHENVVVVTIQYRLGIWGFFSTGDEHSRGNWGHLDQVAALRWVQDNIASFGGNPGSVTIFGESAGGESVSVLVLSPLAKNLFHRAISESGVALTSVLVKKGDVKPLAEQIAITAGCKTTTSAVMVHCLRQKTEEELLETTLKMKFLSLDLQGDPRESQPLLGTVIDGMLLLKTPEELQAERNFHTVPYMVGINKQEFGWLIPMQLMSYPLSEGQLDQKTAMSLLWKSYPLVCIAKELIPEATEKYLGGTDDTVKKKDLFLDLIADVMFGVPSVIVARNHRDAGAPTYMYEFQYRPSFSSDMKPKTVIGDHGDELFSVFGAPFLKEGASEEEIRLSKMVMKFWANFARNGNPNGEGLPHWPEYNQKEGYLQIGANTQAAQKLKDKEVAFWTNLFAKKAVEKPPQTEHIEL
Method: FIG. 3—Transesterification potential of isopropylphenidate (IPH) versus methylphenidate (MPH) by s9 fractions of CES1 transfected cells in the presence of ethanol. MPH (1 mM) or IPH (1 mM) was incubated with s9 fractions of hCES1 overexpressing cells (2 mg/ml) in the presence or absence of ethanol (10 mM) at 37° C. for 30 min. The transesterification product EPH and hydrolytic metabolite RA were analyzed utilizing established HPLC assays. […] Data are expressed as mean±SEM of three independent experiments.
An In Vitro Investigation of the Transesterification Potential of Isopropylphenidate versus Methylphenidate in the Presence of Ethanol. The s9 fraction of hCES1-transfected cells, d1-MPH), dl-IPH, and ethanol working solution were prepared in DPBS containing 20 mM HEPES, pH7.4. The reaction was initiated by mixing 200 μl of s9 fraction, 100 μl of substrates (MPH or IPH) and 100 μl of ethanol. The final concentrations of s9 fraction protein, MPH, IPH, and ethanol were 2 mg/ml, 1 mM, 1 mM, and 10 mM, respectively. After incubation at 37° C. for 1 h, the reaction was terminated by adding a four-fold concentration of ice-cold methanol. The samples were then centrifuged at 16,000 g for 5 min, and the resulting supernatant was subjected to HPLC analysis to assess each for the formation and/or concentration of the hydrolytic product of both MPH and IPH, and common metabolite RA. Additionally, the samples were assayed for the presence of the transesterification metabolite ethylphenidate (EPH). Further, the s9 fraction prepared from the vector-transfected cells was included in this study as a control for any non-enzymatic hydrolysis which might occur. The hCES1 mediated MPH and IPH hydrolysis was estimated by deducting the amounts of RA produced in the vector s9 samples from the RA formation observed in the hCES1 s9 samples.

[1] = molecular target: T2, human dopamine (DA) transporter (DAT) (Homo sapiens, UniProt Q01959); experiment: Dopamine transporter binding assay ([3H]GBR 12935, CEREP); conditions: HCl salts
T2 construct: host or cells: CHO cells, cell membrane homogenates
T2 sequence (Q01959 whole entry): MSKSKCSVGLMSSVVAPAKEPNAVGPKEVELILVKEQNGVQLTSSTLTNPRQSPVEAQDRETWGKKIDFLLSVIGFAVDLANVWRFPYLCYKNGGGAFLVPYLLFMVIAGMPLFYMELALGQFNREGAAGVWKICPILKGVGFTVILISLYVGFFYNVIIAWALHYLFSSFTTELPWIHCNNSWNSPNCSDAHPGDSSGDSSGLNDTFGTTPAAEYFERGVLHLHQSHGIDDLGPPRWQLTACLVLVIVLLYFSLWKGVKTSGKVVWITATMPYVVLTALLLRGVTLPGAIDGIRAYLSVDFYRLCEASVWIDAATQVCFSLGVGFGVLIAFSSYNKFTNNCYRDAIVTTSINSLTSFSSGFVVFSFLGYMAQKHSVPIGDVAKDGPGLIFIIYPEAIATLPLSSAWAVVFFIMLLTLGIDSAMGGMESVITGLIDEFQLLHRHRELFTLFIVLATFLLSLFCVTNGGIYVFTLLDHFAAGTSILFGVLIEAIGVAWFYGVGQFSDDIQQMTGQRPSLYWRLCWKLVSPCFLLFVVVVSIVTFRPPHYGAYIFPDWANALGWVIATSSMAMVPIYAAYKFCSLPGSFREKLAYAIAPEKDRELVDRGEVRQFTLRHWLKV
Method: Transporter Binding and Cellular Uptake. All described monoamine transporter binding studies as well as cellular uptake assays were performed in duplicate by CEREP (Celle l'Evescault, France) and are described below. Further details of all assays performed may be accessed at the CEREP web site (world-wide-web at cerep.com). Cellular-based assays were conducted to provide complementary in vitro functional measures to complement the standard transporter assays as well as to provide direct comparisons of the homologs IPH with MPH with regard to DA, NE, and 5-HT uptake in synaptosomal preparations. […]
Dopamine Transporter Binding Assay. Evaluation of the affinity of both compounds for the human dopamine (DA) transporter (DAT) in transfected Chinese Hamster Ovary (CHO) cells was determined in a validated radioligand binding assay. […] Nonspecific binding was determined in the presence of 10 μM N-[1-(Benzo[b]thien-2-yl-cyclohexyl)] piperidine (BTCP). […] The filters were then dried and measured for radioactivity with a scintillation counter (TopCount, Packard) using a liquid scintillation cocktail (Microscint 0, Packard). The results of DAT binding experiments as well as the other transporter assays described in the following sections were expressed as a percent inhibition of the control radioligand specific binding. […]

[2] = tested on: DA uptake, synaptosomes prepared from the rat striatum; experiment: Dopamine uptake into synaptosomes; format: cell-based
Method: Transporter Binding and Cellular Uptake. All described monoamine transporter binding studies as well as cellular uptake assays were performed in duplicate by CEREP (Celle l'Evescault, France) and are described below. Further details of all assays performed may be accessed at the CEREP web site (world-wide-web at cerep.com). Cellular-based assays were conducted to provide complementary in vitro functional measures to complement the standard transporter assays as well as to provide direct comparisons of the homologs IPH with MPH with regard to DA, NE, and 5-HT uptake in synaptosomal preparations.
Dopamine Uptake. The evaluation of the effects of the two compounds on DA uptake again utilized synaptosomes but this time prepared from the rat striatum. […] After incubation, the samples were filtered, counted, and the results expressed as a percent inhibition of the control uptake of [^3H]dopamine by scintillation count. The standard inhibitory reference compound was GBR12909, which was tested in each experiment at several concentrations to obtain an inhibition curve from which its IC50 value was calculated.

| SMILES | velocity of hCES1-mediated transesterification to EPH (hCES1; 1 mM substrate, 10 mM ethanol, 2 mg/ml s9 protein, 37° C.) [pmole/min/mg protein] | effect of ethanol on formation of the hydrolytic product RA (hCES1; 10 mM ethanol) | EPH formation with ethanol when hCES1 was not present (hCES1) | % inhibition of control specific binding, DAT (h) ([1]; 10 μM, ligand [3H]GBR-12935, transfected CHO cells) [%] | % inhibition of control specific binding; [3H]DA incorporation into synaptosomes ([2]; 10 μM, rat striatum synaptosomes) [%] | inhibition at 10 µM ([1]; ligand [3H]GBR-12935, transfected CHO cells, read-out: % inhibition of control specific binding, DAT (h)) [%] | inhibition at 10 µM ([2]; Rattus norvegicus, read-out: % inhibition of control specific binding, [3H]DA incorporation into synaptosomes) [%] |
| --- | --- | --- | --- | --- | --- | --- | --- |
| CC(C)OC(=O)C(c1ccccc1)C1CCCCN1 (racemic) [IPH, dl-threo-α-phenyl-2-piperidineacetic acid isopropyl ester] | 47.5±3.3 | significantly decreased | no EPH formation was observed | 97 | 96 |  |  |
| COC(=O)C(c1ccccc1)C1CCCCN1 (racemic) [MPH, dl-threo-methylphenidate, reference compound] |  | significantly decreased | no EPH formation was observed |  |  | 101 | 90 |
